Laboratory results taken from patent publication US20230331803A1, “CO-AGONISTS OF THE GLP-1 AND AMYLIN RECEPTORS” (priority 2020, published 2023).
Entries after “also recorded” stand apart in the source; their conditions may differ. Where two headings read alike, the source gives them in different places. Starred links: 1 amine or outer side, 2 acyl side, 3 side chain; linkers in the order of their positions; H or OH if unused. Non-standard residues stand in square brackets, D forms with d. Groups on a side chain read outwards from the residue. *: point of attachment. C20 diacid = O=C(O)CCCCCCCCCCCCCCCCCCC(=O)*; C18 diacid = O=C(O)CCCCCCCCCCCCCCCCC(=O)*; γGlu = O=C(O)[C@H](CCC(=O)[*:2])N[*:1]; εLys = N[C@@H](CCCCN[*:1])C(=O)[*:2]; Trx = NC[C@H]1CC[C@H](C(=O)O)CC1; AEEA = NCCOCCOCC(=O)O; Aib = CC(C)(N)C(=O)O

Columns and labels:
[1] = biological target: T1, human amylin receptor (hAmyR3) (Homo sapiens, UniProt O60896+P30988); assay: Human amylin receptor in vitro potency assay (CRE-luciferase reporter, BHK cells); type: cell-based; settings: for EC50: read-out: Human AmyR3 potency [EC50 (pM)];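 on all read-outs here: BHK cells expressing human calcitonin receptor plus RAMP3 (amylin-3 receptor) with a CRE-luciferase reporter, agonist activity read as luminescence from cAMP-driven transcription, 7-point serial dilutions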
T1 construct: host or cells: BHK cells (Hollex-1 line: human calcitonin receptor (a) + CRE-Luc), further transfected with human RAMP3
T1 sequence (P30988 25-474): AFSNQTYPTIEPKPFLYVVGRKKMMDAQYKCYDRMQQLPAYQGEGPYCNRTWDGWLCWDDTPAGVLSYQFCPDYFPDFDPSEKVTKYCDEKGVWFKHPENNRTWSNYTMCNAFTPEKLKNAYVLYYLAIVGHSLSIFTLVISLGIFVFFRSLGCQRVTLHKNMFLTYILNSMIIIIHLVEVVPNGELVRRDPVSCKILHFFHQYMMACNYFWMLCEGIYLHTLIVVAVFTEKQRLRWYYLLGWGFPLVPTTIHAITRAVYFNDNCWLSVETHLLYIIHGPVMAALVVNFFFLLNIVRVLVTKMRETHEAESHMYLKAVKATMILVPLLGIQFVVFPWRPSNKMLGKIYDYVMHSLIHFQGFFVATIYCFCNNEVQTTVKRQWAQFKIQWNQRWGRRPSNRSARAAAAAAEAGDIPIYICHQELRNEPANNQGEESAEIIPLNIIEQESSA
T1 sequence (O60896 24-148): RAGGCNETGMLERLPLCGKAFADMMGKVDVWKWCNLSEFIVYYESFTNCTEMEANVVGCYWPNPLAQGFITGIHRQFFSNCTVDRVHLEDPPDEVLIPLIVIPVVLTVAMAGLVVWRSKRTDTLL

[2] = biological target: T2, human GLP-1 receptor (Homo sapiens, UniProt P43220); assay: Human GLP-1 receptor in vitro potency assay (CRE-luciferase reporter, BHK cells); type: cell-based; settings: Table 4a; BHK cells expressing human GLP-1R, CRE-Luc, 3 hours; read-out: Human GLP-1R potency [EC50 (pM)]
T2 construct: expressed in transfected cells; host or cells: BHK (Baby Hamster Kidney) cells, clone BHK 467-12A KZ-10, stably transfected, with CRE-luciferase reporter
T2 sequence (P43220 24-463): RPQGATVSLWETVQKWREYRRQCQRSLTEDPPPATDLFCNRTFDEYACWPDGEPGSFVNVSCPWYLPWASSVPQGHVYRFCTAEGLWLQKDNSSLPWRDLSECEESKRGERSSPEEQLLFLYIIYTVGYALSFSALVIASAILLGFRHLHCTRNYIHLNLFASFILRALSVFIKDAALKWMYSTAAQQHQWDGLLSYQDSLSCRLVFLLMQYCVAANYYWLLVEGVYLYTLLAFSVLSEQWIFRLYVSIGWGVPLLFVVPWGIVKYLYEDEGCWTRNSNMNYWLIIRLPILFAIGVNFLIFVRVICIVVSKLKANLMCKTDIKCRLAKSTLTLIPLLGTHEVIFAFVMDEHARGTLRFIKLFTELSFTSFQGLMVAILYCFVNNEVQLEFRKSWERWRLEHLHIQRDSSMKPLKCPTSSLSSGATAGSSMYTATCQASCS
Protocol: It is thus possible to measure GLP-1 receptor activity using a CRE-luciferase reporter gene introduced into Baby Hamster Kidney (BHK) cells co-expressing the GLP-1 receptor.
Cells were aliquoted and stored at -180° C. until use.
Plates were sealed and incubated at room temperature with gentle shaking for 30 minutes while protected from light. Luminescence was detected on a luminescence plate reader e.g. a Synergy 2 (BioTek).

[3] = test system: Sprague Dawley (SD) rats; assay: Acute food intake in ad libitum fed rats after a single subcutaneous administration; type: in vivo, rat; settings: for Food intake relative to vehicle (%) 0-24 hr, 10 nmol/kg / Food intake relative to vehicle (%) 24-48 hr, 10 nmol/kg: rat, single administration;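 on all read-outs here: food intake monitored in the HM2 system, three rats per cage kept on a reversed light cycle, with food and water freely available after the subcutaneous dose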
Description: Sprague Dawley (SD) rats from Taconic Europe, Denmark were used for the acute food intake experiments, wherein the principles of laboratory animal care were followed.
The rats arrived at least 10-14 days before the start of the experiment to allow acclimatisation to experimental settings. During this period, the animals were handled at least 2 times. Immediately upon arrival, rats were put on a reversed light cycle (dark from 11am - 11pm) and put in the HM2 system and ID chipped. Three rats were housed in each cage. […] The rats were dosed once according to body weight with a 0.01-3 mg/kg solution administered subcutaneously (sc). The time of dosing was recorded for each group.
After dosing, the rats were returned to their home cages, where they had access to food and water. […] At the end of the experimental session, the animals were euthanised.

[4] = Table 4a, BHK hAmyR3/CRE-Luc cells, 3 hours

| Substance | EC50 [1, 4] | EC50 [2] | Food intake relative to vehicle (%) 0-24 hr, 10 nmol/kg ([3]; Table 6a) | Food intake relative to vehicle (%) 24-48 hr, 10 nmol/kg ([3]; Table 6a) | EC50 ([1]; Table 4c, further comparator compounds) | Ability to agonise the amylin receptor, in words ([1]; Tables 4a-4c) | Food intake relative to vehicle (%) 0-24 hr, 10 nmol/kg ([3]; Table 6b) | Food intake relative to vehicle (%) 24-48 hr, 10 nmol/kg ([3]; Table 6b) | Inhibition of food intake, in words ([3]; rats, 10 nmol/kg) |
| --- | --- | --- | --- | --- | --- | --- | --- | --- | --- |
| H-H[Aib]EGTFTSDVSSYLEGQAAK([εLys-AEEA-AEEA-γGlu-C18 diacid])EFIAWLVRGRGGGEASELSTAALGRLSAELHELATLPRTETGSGSP-NH2 [Compound 0044] | 9.1 pM | 16 pM | 40% | 82% | – | – | – | – | – |
| H-H[Aib]EGTFTSDVSSYLEGQAAREFIAWLVRGRK([AEEA-AEEA-γGlu-C18 diacid])GGGGEASELSTAALGRLSAELHELATLPRTETGSGSP-NH2 [Compound 0151] | 9.5 pM | 10.4 pM | 29% | 70% | – | – | – | – | – |
| H-H[Aib]EGTFTSDVSSYLEGQAAK([AEEA-AEEA-γGlu-Trx-C20 diacid])EFIAWLVRGRGGGGGGGGGEASELSTAALGRLSAELHELATLPRTETGSGSP-NH2 [Compound 0095] | 6.6 pM | 7.4 pM | 55% | 95% | – | – | – | – | – |
| H-H[Aib]EGTFTSDVSSYLEEQAAREFIAWLVRGRK([AEEA-AEEA-γGlu-Trx-C20 diacid])GGGGEASELSTAALGRPSAELHELATLPRTETGSGSP-NH2 [Comparator compound 0192, reference compound] | – | – | – | – | ≥ 10000 pM | impaired their ability to agonise (activate) the amylin receptor; also recorded: impaired amylin activity | 71% | 67% | significantly less than in the case of compound 0120 |
| H[Aib]EGTFTSDVSSYLEEQAARK([AEEA-AEEA-γGlu-C18 diacid])FIAWLVRGRK([AEEA-AEEA-γGlu-C18 diacid])GGEASELSTAALGRLSAELHELATLPRTETGSGSP-NH2 [Compound 0116] | 21.7 pM | 1.5 pM | 83% | 82% | – | – | – | – | – |
| H-H[Aib]EGTFTSDVSSYLEGQAAKEFIAWLVRGRK([AEEA-AEEA-γGlu-C18 diacid])GGEASELSTAALGRLSAELHELATLPRTETGSGSP-NH2 [Compound 0042] | 10.8 pM | 16.2 pM | 52% | 101% | – | – | – | – | – |
| H[Aib]EGTFTSDVSSYLEEQAARK([γGlu-C18 diacid])FIAWLVRGRK([γGlu-C18 diacid])EASELSTAALGRLSAELHELATLPRTETGSGSP-NH2 [Compound 0131] | 14.5 pM | 16.1 pM | 70% | 80% | – | – | – | – | – |
